{"source": "PubChem BioAssay AID330", "about": "(DTP/NCI, 2004)", "system": "P388 leukemia ip, CD2F1 mice, survival T/C", "assay": "NCI In Vivo Anticancer Drug Screen. Data for tumor model P388 Leukemia (intraperitoneal) in CD2F1 (CDF1) mice", "settings": "endpoint: median survival time, higher = longer survival", "outline": "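Mice carrying the transplanted tumor received test compound or vehicle. Survival was recorded in each group, and the value is the treated-group measurement divided by that of the vehicle-treated control group.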", "key": {"[1]": {"settings": "dose: 25.0 mg/kg/injection, schedule: Q04DX003 (ip), vehicle: saline with Tween-80"}, "[2]": {"settings": "dose: 50.0 mg/kg/injection, schedule: Q04DX003 (ip), vehicle: saline with Tween-80"}, "[3]": {"settings": "dose: 100.0 mg/kg/injection, schedule: Q04DX003 (ip), vehicle: saline with Tween-80"}, "[4]": {"settings": "dose: 50.0 mg/kg/injection, schedule: Q01DX009 (ip), vehicle: saline"}, "[5]": {"settings": "dose: 100.0 mg/kg/injection, schedule: Q01DX009 (ip), vehicle: saline"}, "[6]": {"settings": "dose: 200.0 mg/kg/injection, schedule: Q01DX009 (ip), vehicle: saline"}, "[7]": {"settings": "dose: 200.0 mg/kg/injection, schedule: Q04DX003 (ip), vehicle: saline with Tween-80"}, "[8]": {"settings": "dose: 400.0 mg/kg/injection, schedule: Q04DX003 (ip), vehicle: saline with Tween-80"}}, "note": "Several values for one entry are separate records, joined by “and”; a condition that tells them apart may be missing. Identical values can stand only once. Toxic doses and inconclusive results are not listed.", "data": [{"smiles": "[Se]=P(c1ccccc1)(N1CC1)N1CC1", "values": [{"measurement": "T/C", "setting": "[1]", "result": "108 % of control"}, {"measurement": "T/C", "setting": "[2]", "result": "109 % of control"}]}, {"smiles": "CCCN=C(N)c1ccc(NC(=O)c2ccc(C(=O)Nc3ccc(C(N)=NCCC)cc3)cc2)cc1", "values": [{"measurement": "T/C", "setting": "dose: 6.25 mg/kg/injection, schedule: Q04DX003 (ip), vehicle: saline with Tween-80", "result": "154 % of control"}, {"measurement": "T/C", "setting": "dose: 12.5 mg/kg/injection, schedule: Q04DX003 (ip), vehicle: saline with Tween-80", "result": "163 % of control"}, {"measurement": "T/C", "setting": "dose: 25.0 mg/kg/injection, schedule: Q01DX009 (ip), vehicle: saline with Tween-80", "result": "122 % of control"}, {"measurement": "T/C", "setting": "[1]", "result": "154 % of control"}, {"measurement": "T/C", "setting": "dose: 50.0 mg/kg/injection, schedule: Q01DX009 (ip), vehicle: saline with Tween-80", "result": "90 % of control"}, {"measurement": "T/C", "setting": "[2]", "result": "213 % of control"}, {"measurement": "T/C", "setting": "[3]", "result": "100 % of control"}]}, {"smiles": "Cc1cc(Cc2ccc3c(c2)OCO3)ccc1OCC(=O)O", "values": [{"measurement": "T/C", "setting": "dose: 50.0 mg/kg/injection, schedule: Q01DX005 (ip), vehicle: Klucel (hydroxypropylcellulose) (HPC)", "result": "98 % of control"}, {"measurement": "T/C", "setting": "dose: 100.0 mg/kg/injection, schedule: Q01DX005 (ip), vehicle: Klucel (hydroxypropylcellulose) (HPC)", "result": "105 % of control"}, {"measurement": "T/C", "setting": "dose: 200.0 mg/kg/injection, schedule: Q01DX005 (ip), vehicle: Klucel (hydroxypropylcellulose) (HPC)", "result": "104 % of control"}]}, {"smiles": "OCC[N+]12CN3CN(CN(C3)C1)C2", "values": [{"measurement": "T/C", "setting": "dose: 25.0 mg/kg/injection, schedule: Q01DX009 (ip), vehicle: saline", "result": "108 % of control"}, {"measurement": "T/C", "setting": "[4]", "result": "110 % of control"}, {"measurement": "T/C", "setting": "[5]", "result": "111 % of control"}, {"measurement": "T/C", "setting": "dose: 178.0 mg/kg/injection, schedule: Q01DX009 (ip), vehicle: saline", "result": "118 % of control"}, {"measurement": "T/C", "setting": "[6]", "result": "118 % of control"}, {"measurement": "T/C", "setting": "dose: 266.0 mg/kg/injection, schedule: Q01DX009 (ip), vehicle: saline", "result": "118 % of control"}]}, {"smiles": "CN1C(=O)C2C(N(C3OC(CO)C(O)C3O)C1=O)C2(Cl)Cl", "note": "(stereo unspecified)", "values": [{"measurement": "T/C", "setting": "dose: 75.0 mg/kg/injection, schedule: Q04DX003 (ip), vehicle: saline", "result": "100 % of control"}, {"measurement": "T/C", "setting": "dose: 100.0 mg/kg/injection, schedule: Q04DX003 (ip), vehicle: saline", "result": "100 % of control"}, {"measurement": "T/C", "setting": "dose: 150.0 mg/kg/injection, schedule: Q04DX003 (ip), vehicle: saline", "result": "99 % of control"}, {"measurement": "T/C", "setting": "dose: 200.0 mg/kg/injection, schedule: Q04DX003 (ip), vehicle: saline", "result": "99 % of control"}, {"measurement": "T/C", "setting": "dose: 300.0 mg/kg/injection, schedule: Q04DX003 (ip), vehicle: saline", "result": "102 % of control"}, {"measurement": "T/C", "setting": "dose: 400.0 mg/kg/injection, schedule: Q04DX003 (ip), vehicle: saline", "result": "99 % of control"}]}, {"smiles": "CC[n+]1c(/C=C/c2ccc(N(CCC(=O)O)CCC(=O)O)cc2)ccc2ccccc21", "values": [{"measurement": "T/C", "setting": "dose: 12.5 mg/kg/injection, schedule: Q04DX002 (ip), vehicle: saline with Tween-80", "result": "100 % of control"}, {"measurement": "T/C", "setting": "dose: 25.0 mg/kg/injection, schedule: Q04DX002 (ip), vehicle: saline with Tween-80", "result": "106 % of control"}, {"measurement": "T/C", "setting": "dose: 50.0 mg/kg/injection, schedule: Q04DX002 (ip), vehicle: saline with Tween-80", "result": "106 % of control"}]}, {"smiles": "N#Cc1c(C(=O)NN)cc(-c2ccc3ccccc3c2)[nH]c1=O", "values": [{"measurement": "T/C", "setting": "dose: 50.0 mg/kg/injection, schedule: Q01DX005 (ip), vehicle: saline with Tween-80", "result": "100 % of control"}, {"measurement": "T/C", "setting": "dose: 100.0 mg/kg/injection, schedule: Q01DX005 (ip), vehicle: saline with Tween-80", "result": "98 % of control"}]}, {"smiles": "N#CCC1(C#N)CCC(OCc2ccccc2)CC1", "note": "(stereo unspecified)", "values": [{"measurement": "T/C", "setting": "[4]", "result": "100 % of control and 99 % of control"}, {"measurement": "T/C", "setting": "[5]", "result": "100 % of control"}, {"measurement": "T/C", "setting": "[6]", "result": "102 % of control and 101 % of control"}]}, {"smiles": "O=C(c1ccc(Cl)cc1)n1c(Cl)c(/C=N\\Nc2ccc([N+](=O)[O-])cc2)c2ccccc21", "values": [{"measurement": "T/C", "setting": "[3]", "result": "94 % of control"}, {"measurement": "T/C", "setting": "[7]", "result": "97 % of control"}, {"measurement": "T/C", "setting": "[8]", "result": "92 % of control"}]}, {"smiles": "Cc1ccc(S(=O)(=O)OC2C(COCC(=O)O)OC3OC(C)(C)OC32)cc1", "note": "(stereo unspecified)", "values": [{"measurement": "T/C", "setting": "[3]", "result": "95 % of control"}, {"measurement": "T/C", "setting": "[7]", "result": "95 % of control"}, {"measurement": "T/C", "setting": "[8]", "result": "90 % of control"}]}, {"smiles": "CCCCCCCC(=O)C(=O)c1ccc(O)cc1O", "values": [{"measurement": "T/C", "setting": "dose: 50.0 mg/kg/injection, schedule: Q01DX009 (ip), vehicle: Klucel (hydroxypropylcellulose) (HPC)", "result": "109 % of control"}, {"measurement": "T/C", "setting": "dose: 100.0 mg/kg/injection, schedule: Q01DX009 (ip), vehicle: Klucel (hydroxypropylcellulose) (HPC)", "result": "112 % of control"}, {"measurement": "T/C", "setting": "dose: 200.0 mg/kg/injection, schedule: Q01DX009 (ip), vehicle: Klucel (hydroxypropylcellulose) (HPC)", "result": "113 % of control"}]}]}
